According to US4474977A, “Amino-alcohol derivatives” (Continental Pharma S.A., priority 1977, dated 1984):
Like-named read-outs stand apart in the source and are kept apart here.

Columns and labels:
guinea pig ileum = experiment: antispasmodic activity against contractions of guinea pig ileum induced by histamine and acetylcholine; settings: Cavia porcellus
Experimental: The antispasmodic activity of the products according to the invention was tested against contractions of guinea pig ileum, such as induced by histamine and acetylcholine. These tests allow to reveal an antihistaminic activity, an anticholinergic activity or a musculotropic antispasmodic activity. The response to the contracting agent (submaximum concentration)was repeated every 5 minutes before and after injection of increasing doses of the tested products (10^-8 to 10^-5 M). The various doses were added at intervals of 20 minutes or of the time necessary to the development of the maximum effect.
The percentage of inhibition under the influence of tested products was calculated and the theoretical concentration ensuring 50% inhibition was graphically determined for each experience. These values were expressed as -log IC50 (M). The standard value for papaverine was 4.50, namely an effective concentration of 30 μM.

[1] = test system: epididymal fat of the rat; experiment: effect on in vitro induced lipolysis in epididymal fat of the rat; settings: in words
Experimental: The effect on the in vitro induced lipolysis in the epididymal fat of the rat was measured by colorimetry of fatty acids liberated during the tissue incubation under the experimental conditions such as described hereinafter.
Male Sprague-Dawley rats weighing about 250 gr were sacrified by cervical dislocation after a fasting period of 18 hours. The quickly taken-off epididymal fat was placed in a Krebs-Ringer phosphate buffer at pH 7.4, containing 1% albumin.
The tissue was cut into fragments of ±20 mgr, which were dried on filter paper and homogeneously distributed in groups of ±150 mgr weighed with precision. Each group was pre-incubated (15 minutes, 37° C., stirring) in 5 ml of Krebs-Ringer phosphate buffer (pH 7.4) containing 7% of bovine albumin and the product to be tested.
After pre-incubation, 1 ml of the medium is taken off for determining the amount of basic lipolysis. The induction agent in solution in 0.1 ml of phosphate buffer is then added to 4 ml of the remaining medium and after incubation of 90 minutes under the same conditions, liberated fatty acids are titrated in 1 ml of medium according to a variant of the colorimetric method of W. G. Duncombe (Biochem. J., 83, 6P, 1962; Biochem. J., 88, 7-10, 1963; Clin. Chem. Acta, 9, 122-125, 1964).

[2] = test system: femoral arterial circulation; experiment: peripheral vasodilator activity on anaesthetized dog, femoral arterial perfusion pressure; assay type: in vivo; settings: 30 μg/kg injected in femoral perfusion (some also at other doses); in words
Experimental: The peripheral vasodilator activity of the products according to the invention was measured on anaesthetized dog at the level of the femoral arterial circulation. To this end, the femoral artery the collaterals of which were ligaturated was perfused with a constant flow rate of blood taken from aorta. Thus the perfusion pressure measured at the level of the femoral artery, varied as a function of the resistance of perfused area. The tested products and the corresponding solvents were directly injected in the system at the dose of 30 μg/kg. The blood circulation rate being maintained constant, a vasodilation was thus measured by a decrease of the perfusion pressure. The latter is rated in comparison with the action of papaverine considered as standard and injected once per group of 4 products.
When being of interest, the products were tested at other doses under the same conditions. The vasodilation activity was rated as follows:
+: 1/3 of the papaverine activity
++: 2/3 of the papaverine activity
+++: activity equal to that of papaverine (i.e. 30 to 40 mm Hg)
++++: activity higher than that of papaverine.

[3] = test system: human platelet rich plasma (PRP); experiment: blood platelet aggregation (Born method) in human platelet rich plasma; assay type: cell-based; settings: 24 μl of 2×10^-2 M solution added to 300 μl PRP; induced by thrombofax or collagen; in words
Experimental: The blood platelet aggregation was studied according to the Born Method (J. Physiol., 168, 178, 1963). Nine volumes of human venous blood were taken off and anticoagulated with one volume of a trisodium citrate solution (0.129 M). The blood was centrifuged at 200 g for 10 minutes (22° C.) for preparing the platelet rich plasma (PRP). Methanol or acetone was used in order to obtain 2×10^-2 M solutions of the various involved products, 24 μl of each product were added to 300 μl of PRP. For controls, 24 μl of the various hereinabove mentioned solvents were used. The products were pre-incubated in the presence of PRP for 4 minutes at 37° C. under continuous stirring (1100 rpm). After this incubation period, the platelet aggregation was induced by addition of 100 μl of thrombofax or collagen. The aggregation phenomenon was quantified by graphical determination of the aggregation amplitude (A).
The inhibition percentage of the agglutination amplitude was calculated as follows:
A (% inhibition): 100-(Ax /Ao)×100
Ax : value of aggregation amplitude in the presence of examined products
Ao : value of aggregation amplitude for controls

[4] = test system: spontaneously hypertensive rats; experiment: antihypertensive activity, oral administration to non-anesthetized spontaneously hypertensive rats, systolic arterial pressure (plethysmographic); assay type: in vivo, rat; settings: 60 mgr/kg oral (some also at other doses); in words
Experimental: Their antihypertensive activity was tested by oral administration to non-anesthetized, spontaneously hypertensive rats, on which the systolic arterial pressure is measured at the level of the median coccygeal artery by means of a plethysmographic method (J. Roba, G. Lambelin, A. F. De Schaepdryver, Arch. int. Pharmacodyn., 200, 182, 1972). The arterial pressure was measured every 30 minutes from two hours before to three hours after oral administration of 60 mgr/kg of the tested products or of a placebo (1% tragacanth gum mucilage). When being of interest, the products were tested at other doses under similar conditions. Only rats having a systolic pressure of 180 to 220 mm Hg were used. Two rats were used for each product. The treatments were made without the knowledge of the person making the measures. The antihypertensive effects were rated as follows:
+: reduction of 10 to 20 mm Hg
++: reduction of 20 to 30 mm Hg
+++: reduction of 30 to 50 mm Hg
++++: reduction >50 mm Hg

[5] = contractions induced by histamine and acetylcholine, 10^-8 to 10^-5 M, read-out: -log IC50 (M), antispasmodic activity (converted)

Compound | IC50 (guinea pig ileum; [5]) [M] | effect on induced lipolysis [1] | peripheral vasodilator activity (compared with papaverine) [2] | anti-aggregation effect [3] | other results
CCCCCCCCNC(C)C(OC(=O)C(C)(C)C)c1ccc(SC(C)C)cc1 (centres unmarked) [Compound 1] | < 1e-06 | active | – | – | IC50 (guinea pig ileum; 50% inhibition of contractions, converted from -log IC50, read-out: effective concentration / concentration corresponding to -log IC50 (converted)): < 1e-06 M
CCCCCCCCNC(C)C(OC(C)=O)c1ccc(SC(C)C)cc1.Cl (centres unmarked) [Compound 3, 1-Acetyloxy-1-(4-isopropylthiophenyl)-2-n-octylaminopropane hydrochloride] | – | – | at least equal to that of papaverine | strong anti-aggregation effect | IC50 (guinea pig ileum; read-out: -log IC50 (M), antispasmodic activity (converted)): < 1e-06 M; IC50 (guinea pig ileum; read-out: effective concentration / concentration corresponding to -log IC50 (converted)): < 1e-06 M
CCCCCCCCNC(C)C(OC(=O)CC(C)(C)C)c1ccc(SC(C)C)cc1.Cl (centres unmarked) [Compound 30, 1-neopentylcarbonyloxy-1-(4-isopropylthiophenyl)-2-n-octylaminopropane (hydrochloride)] | < 1e-06 | – | – | strong anti-aggregation effect | antihypertensive activity [4]: suitable antihypertensive activity
CCCCCCCCNC(C)C(O)c1ccc(OC)cc1 (centres unmarked) [Compound 74, 1-(4-methoxyphenyl)-2-n-octylamino-1-propanol] | – | active | at least equal to that of papaverine | – | –
CCCCCCCCNC(C)C(O)c1ccc(C)cc1 (centres unmarked) [Compound 75] | – | active | – | – | –
CCCCCCCCNC(C)C(O)c1ccccc1 (centres unmarked) [Compound 76] | – | active | – | – | –
